Data from patent US6242445A, “Benzimidazole derivative” (Kureha Chemical Industry Co., Ltd., priority 1998, dated 2001).

Assays:
[1] = target: T1, angiotensin II receptor subtype 1 (AT1) (Oryctolagus cuniculus, UniProt P34976); experiment: Binding assay, angiotensin II receptor subtype 1 (AT1); design: species or system rabbits; inhibition: dose or concentration left out as unconfirmed; conditions: 3 h
T1 construct: from adrenal glands in rabbits; from tissue; host or cells: adrenal glands of rabbits
T1 sequence (P34976 1-359): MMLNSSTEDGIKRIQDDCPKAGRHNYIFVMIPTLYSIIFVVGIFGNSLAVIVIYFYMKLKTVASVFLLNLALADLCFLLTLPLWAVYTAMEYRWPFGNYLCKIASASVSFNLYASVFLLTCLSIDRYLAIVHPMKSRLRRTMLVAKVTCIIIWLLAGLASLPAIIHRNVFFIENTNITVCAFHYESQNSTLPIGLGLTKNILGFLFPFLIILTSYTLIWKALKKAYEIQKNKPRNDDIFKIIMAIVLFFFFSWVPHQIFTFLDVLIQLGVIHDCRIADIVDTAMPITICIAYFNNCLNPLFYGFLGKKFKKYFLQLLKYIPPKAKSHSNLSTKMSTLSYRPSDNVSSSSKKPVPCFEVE
Experimental: (§1) In this Example, a binding assay was carried out. That is, the affinity to the angiotensin II receptor subtype 1 orsubtype 2 was evaluated in accordance with the method described in Biochem. Pharmacol., 33, 4057-4062 (1984).
(§2) Specifically, the measurement of the total binding in the presence of each drug was performed as follows:
(§3) A mixture (final volume=0.25 ml) of a drug in a given concentration (the drug was dissolved in DMSO, and diluted to a double volume with a buffer attached to a drug discovery system to prepare a sample for the assay; 0.025 ml), a tracer (0.025 ml), and receptors (0.2 ml) was incubated [in the case of the angiotensin II receptor subtype 1 (AT1), at room temperature for 3 hours, and in the case of the subtype 2 (AT2), at 37° C. for 1 hour]. Then, the reaction mixture was filtered with suction (a GF/C filter was used in AT1, and a GF/B filter was used in AT2). The filter papers after filtration with suction (the tracer bound to the receptors) were counted by a γ-well counter (ARC-500, Aloka). The non-specific bindings were measured by repeating the above method, except that a large excess amount of a displacer was added. The specific binding of the drug in the given concentration was calculated by subtracting the non-specific binding from the total binding, respectively.
tracer: ^3 H-angiotensin II

[2] = target: T2, angiotensin II receptor subtype 2 (AT2) (Bos taurus, UniProt G5E6F7); experiment: Binding assay, angiotensin II receptor subtype 2 (AT2); design: species or system bovine; dose or concentration left out as unconfirmed; conditions: 1 h; tracer 125I-Tyr4-angiotensin II
T2 construct: from cerebellar cortex in bovine; from tissue; host or cells: cerebellar cortex, bovine
T2 sequence (G5E6F7 1-362): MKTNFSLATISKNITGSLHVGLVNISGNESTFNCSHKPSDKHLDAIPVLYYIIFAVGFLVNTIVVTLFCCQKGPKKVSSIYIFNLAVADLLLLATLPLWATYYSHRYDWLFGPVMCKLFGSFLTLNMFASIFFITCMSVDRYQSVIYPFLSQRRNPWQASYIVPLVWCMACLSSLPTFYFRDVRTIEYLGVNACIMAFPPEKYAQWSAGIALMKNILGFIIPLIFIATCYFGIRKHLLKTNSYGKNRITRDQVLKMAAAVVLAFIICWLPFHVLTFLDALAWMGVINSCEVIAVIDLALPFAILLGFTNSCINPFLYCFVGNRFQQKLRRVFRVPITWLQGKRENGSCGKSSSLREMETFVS
Experimental: as §1, §2, §3
In AT1 and AT2, the percentages found to inhibit the bindings of radioactive ligands (tracer) to receptors by the drugs to be tested (IC50 value of concentration to show 50% inhibition, […]) were measured, using the drugs to be tested and control drugs in the given concentration.
receptor: from cerebellar cortex in bovine
tracer: ^125 I-Tyr^4 -angiotensin II
control drug: angiotensin II (human)
(displacer): angiotensin II (human)

[3] = J. Clin. Pharmacol., 30: 155 to 158, 1990; cited from earlier work
ICR female mice = experiment: Acute toxicity (single oral administration); type: in vivo; conditions: 500 mg/kg single oral; deaths observed for 6 days
Experimental: Acute toxicity was evaluated in this Example. As a compound to be examined, 2-ethoxy-1-[[4'-(2"-N,N-dimethylamino-ethoxycarbonyl)phenyl]methyl]-1H-benzimidazole-6-carboxylic acid morpholide (Compound No. 13) prepared in Example 6 was used.
Five-week-old ICR female mice (5 mice per group) were bredfor acclimation for a week. Then, Compound No. 13 was dissolved or suspended in 0.5% methylcellulose aqueous solution, and orally administered to the mice in a single dosage (500 mg/kg). […] Further, as to Compound No. 55, Compound No. 57, Compound No. 59, and Compound No. 65 prepared in Examples 26, 28, 31, and 23, respectively, acute toxicity was also evaluated.

SMILES	inhibition [1] [%]	inhibition [2] [%]	further results
CCCOc1nc2ccc(C(=O)N3CCOCC3)cc2n1Cc1ccc(C(=O)O)cc1 [Compound No. 3, 2-n-propoxy-1-[(4'-carboxyphenyl)methyl]-1H-benzimidazole-6-carboxylic acid morpholide]	45	0	–
CCOc1nc2ccc(C(=O)N3CCCC3)cc2n1Cc1ccc(C(=O)O)cc1 [Compound No. 6, 2-ethoxy-1-[(4'-carboxyphenyl)methyl]-1H-benzimidazole-6-carboxylic acid pyrrolidinamide]	50	0	–
CCOC(=O)[C@H](CCc1ccccc1)N[C@@H](C)C(=O)N1CCC[C@H]1C(=O)O [Enalapril]	–	–	Blood pressure [3]: the blood pressure is lowered; progress of the kidney diseases [3]: the progress of the kidney diseases is ameliorated
CCOc1nc2ccc(C(=O)N3CCOCC3)cc2n1Cc1ccc(C(=O)O)cc1 [Compound No. 1, 2-ethoxy-1-[(4'-carboxyphenyl)methyl]-1H-benzimidazole-6-carboxylic acid morpholide]	45	0	–
CCOc1nc2ccc(C(=O)N3CCCCCC3)cc2n1Cc1ccc(C(=O)OCCN(C)C)cc1 [Compound No. 59, 2-ethoxy-1-[[4'-(2"-N,N-dimethylaminoethoxycarbonyl)phenyl]methyl]-1H-benzimidazole-6-carboxylic acid perhydroazepinamide]	–	–	Number of deaths/number of survivals (ICR female mice): 0/5
CCOc1nc2ccc(C(=O)N3CCCC3)cc2n1Cc1ccc(C(=O)OCCN(C)C)cc1 [Compound No. 65, 2-ethoxy-1-[[4'-[2"-(dimethylamino)-ethoxycarbonyl]phenyl]methyl]-1H-benzimidazole-6-carboxylic acid pyrrolidinamide]	–	–	Number of deaths/number of survivals (ICR female mice): 0/5
CCOc1nc2ccc(C(=O)N3CCOCC3)cc2n1Cc1ccc(O)cc1 [compound 2]	0	0	–
CCOc1nc2ccc(C(=O)N3CCCCC3)cc2n1Cc1ccc(C(=O)OCCN(C)C)cc1 [Compound No. 55, 2-ethoxy-1-[[4'-(2"-N,N-dimethylaminoethoxycarbonyl)phenyl]methyl]-1H-benzimidazole-6-carboxylic acid piperidinamide]	–	–	Number of deaths/number of survivals (ICR female mice): 0/5
CCOc1nc2ccc(C(=O)N3CCCCC3)cc2n1Cc1ccc(C(=O)O)cc1 [Compound No. 5, 2-ethoxy-1-[(4'-carboxyphenyl)methyl]-1H-benzimidazole-6-carboxylic acid piperidinamide]	50	0	–
CCCCOc1nc2ccc(C(=O)N3CCOCC3)cc2n1Cc1ccc(C(=O)O)cc1 [Compound No. 4]	45	0	–
C[C@H](CS)C(=O)N1CCC[C@H]1C(=O)O [Captopril]	–	–	Blood pressure [3]: the blood pressure is lowered; progress of the kidney diseases [3]: the progress of the kidney diseases is ameliorated
